Laboratory results reported in US11168086B2, “Methods of synthesizing pyrazine compounds” (Hoffmann-La Roche Inc., priority 2015, dated 2021).

System: HBV
Assay: HBV inhibition assay: anti-HBV activity in vitro in HepG2.2.15 cells (extracellular HBV DNA by qPCR)
Format: cell-based
Conditions: Hepatitis B virus, 120 h, five days after compound treatment, extracellular HBV DNA in culture supernatant by qPCR, concentration at which HBV replication is inhibited by 50%
Outline: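 HepG2.2.15 cells (stably carrying HBV genome) treated with half-log serially diluted compounds at 0.5% DMSO final for five days. Extracellular HBV DNA in supernatant quantified by qPCR after Proteinase K digestion; EC50 is concentration giving 50% inhibition of replication.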

CC1Cn2ncc(-n3cc(F)cn3)c2CN1C(=O)Nc1ccc(F)c(Cl)c1 (stereo not shown) [Example 201, N-(3-chloro-4-fluoro-phenyl)-3-(4-fluoropyrazol-1-yl)-6-methyl-6,7-dihydro-4H-pyrazolo[1,5-a]pyrazine-5-carboxamide]
EC50: 13 nM

Cc1cnn(-c2cnn3c2CN(C(=O)Nc2ccc(F)c(Cl)c2)C(C)C3)c1 (stereo not shown) [Example 199, N-(3-chloro-4-fluoro-phenyl)-6-methyl-3-(4-methylpyrazol-1-yl)-6,7-dihydro-4H-pyrazolo[1,5-a]pyrazine-5-carboxamide]
EC50: 30 nM

CC1Cn2ncc(-c3ccc(F)cc3)c2CN1C(=O)Nc1ccc(F)c(Cl)c1 (stereo not shown) [Example 61, N-(3-chloro-4-fluoro-phenyl)-3-(4-fluorophenyl)-6-methyl-6,7-dihydro-4H-pyrazolo[1,5-a]pyrazine-5-carboxamide]
EC50: 29 nM

C[C@H]1Cn2ncc(N3CC(C#N)CC3=O)c2CN1C(=O)Nc1cc(F)c(F)c(F)c1 (stereo partly drawn) [Example 240, (6S)-3-(4-cyano-2-oxo-pyrrolidin-1-yl)-6-methyl-N-(3,4,5-trifluorophenyl)-6,7-dihydro-4H-pyrazolo[1,5-a]pyrazine-5-carboxamide]
EC50: 16 nM

CC1Cn2ncc(-c3ccc(F)cn3)c2CN1C(=O)Nc1ccc(F)c(Cl)c1 (stereo not shown) [Example 94, N-(3-chloro-4-fluoro-phenyl)-3-(5-fluoro-2-pyridyl)-6-methyl-6,7-dihydro-4H-pyrazolo[1,5-a]pyrazine-5-carboxamide]
EC50: 33 nM

C[C@H]1Cn2ncc(-c3ccc(F)cn3)c2CN1C(=O)Nc1cc(F)c(F)c(F)c1 [Example 198, (6S)-3-(5-fluoro-2-pyridyl)-6-methyl-N-(3,4,5-trifluorophenyl)-6,7-dihydro-4H-pyrazolo[1,5-a]pyrazine-5-carboxamide]
EC50: 30 nM

O=C(Nc1ccc(F)c(Cl)c1)N1CCn2cnc(-c3ccc(F)cc3)c2C1 [Example 127, N-(3-chloro-4-fluoro-phenyl)-1-(4-fluorophenyl)-6,8-dihydro-5H-imidazo[1,5-a]pyrazine-7-carboxamide]
EC50: 86 nM

C[C@H]1Cn2ncc(N3CCOCC3=O)c2CN1C(=O)Nc1cc(F)c(F)c(C(F)F)c1 [Example 271, (6S)—N-[3-(difluoromethyl)-4,5-difluoro-phenyl]-6-methyl-3-(3-oxomorpholin-4-yl)-6,7-dihydro-4H-pyrazolo[1,5-a]pyrazine-5-carboxamide]
EC50: 38 nM

COC(=O)N1CC2(CC(=O)N(c3cnn4c3CN(C(=O)Nc3cc(F)c(F)c(F)c3)[C@@H](C)C4)C2)C1 [Example 333, methyl 6-[(6S)-6-methyl-5-[(3,4,5-trifluorophenyl)carbamoyl]-6,7-dihydro-4H-pyrazolo[1,5-a]pyrazin-3-yl]-7-oxo-2,6-diazaspiro[3.4]octane-2-carboxylate]
EC50: 46 nM

C[C@H]1Cn2ncc(N3CC(C)(C)OCC3=O)c2CN1C(=O)Nc1ccc(F)c(Cl)c1 [Example 371, (6S)—N-(3-chloro-4-fluoro-phenyl)-3-(2,2-dimethyl-5-oxo-morpholin-4-yl)-6-methyl-6,7-dihydro-4H-pyrazolo[1,5-a]pyrazine-5-carboxamide]
EC50: 20 nM

CC1CN(c2cnn3c2CN(C(=O)Nc2cc(F)c(F)c(F)c2)[C@@H](C)C3)C(=O)CO1 (stereo partly drawn) [Example 243, (6S)-6-methyl-3-(2-methyl-5-oxo-morpholin-4-yl)-N-(3,4,5-trifluorophenyl)-6,7-dihydro-4H-pyrazolo[1,5-a]pyrazine-5-carboxamide]
EC50: 31 nM

C[C@H]1Cn2ncc(N3CC(Nc4ncncc4F)CC3=O)c2CN1C(=O)Nc1cc(F)c(F)c(F)c1 (stereo partly drawn) [Example 270, (6S)-3-[4-[(5-fluoropyrimidin-4-yl)amino]-2-oxo-pyrrolidin-1-yl]-6-methyl-N-(3,4,5-trifluorophenyl)-6,7-dihydro-4H-pyrazolo[1,5-a]pyrazine-5-carboxamide]
EC50: 17 nM

C[C@H]1Cn2ncc(N3CCOCC3=O)c2CN1C(=O)Nc1cc(F)c(F)c(F)c1 [Example 233, (6S)-6-methyl-3-(3-oxomorpholin-4-yl)-N-(3,4,5-trifluorophenyl)-6,7-dihydro-4H-pyrazolo[1,5-a]pyrazine-5-carboxamide]
EC50: 76 nM

C[C@H]1Cn2ncc(N3CC(C(F)(F)F)CC3=O)c2CN1C(=O)Nc1cc(F)c(F)c(F)c1 (stereo partly drawn) [Example 259, (6S)-6-methyl-3-[2-oxo-4-(trifluoromethyl)pyrrolidin-1-yl]-N-(3,4,5-trifluorophenyl)-6,7-dihydro-4H-pyrazolo[1,5-a]pyrazine-5-carboxamide]
EC50: 23 nM

C[C@H]1Cn2ncc(N3CC(C(=O)N4CCOCC4)CC3=O)c2CN1C(=O)Nc1cc(F)c(F)c(F)c1 (stereo partly drawn) [Example 386, (6S)-6-methyl-3-[4-(morpholine-4-carbonyl)-2-oxo-pyrrolidin-1-yl]-N-(3,4,5-trifluorophenyl)-6,7-dihydro-4H-pyrazolo[1,5-a]pyrazine-5-carboxamide]
EC50: 88 nM

C[C@H]1Cn2ncc(N3CC4(CC4)OC3=O)c2CN1C(=O)Nc1cc(F)c(F)c(F)c1 [Example 331, (6S)-6-methyl-3-(5-oxo-4-oxa-6-azaspiro[2.4]heptan-6-yl)-N-(3,4,5-trifluorophenyl)-6,7-dihydro-4H-pyrazolo[1,5-a]pyrazine-5-carboxamide]
EC50: 12 nM

C#Cc1cc(NC(=O)N2CCn3ncc(-c4ccc(F)cc4F)c3C2)ccc1F [Example 139, 3-(2,4-difluorophenyl)-N-(3-ethynyl-4-fluoro-phenyl)-6,7-dihydro-4H-pyrazolo[1,5-a]pyrazine-5-carboxamide]
EC50: 46 nM

O=C(Nc1ccc(F)c(Cl)c1)N1CCn2cnc(-c3ccc(F)cc3F)c2C1 [Example 135, N-(3-chloro-4-fluoro-phenyl)-1-(2,4-difluorophenyl)-6,8-dihydro-5H-imidazo[1,5-a]pyrazine-7-carboxamide]
EC50: 23 nM

C[C@H]1Cn2ncc(N3CC(c4cnn(C)c4)CC3=O)c2CN1C(=O)Nc1cc(F)c(F)c(F)c1 (stereo partly drawn) [Example 412, (6S)-6-methyl-3-[4-(1-methylpyrazol-4-yl)-2-oxo-pyrrolidin-1-yl]-N-(3,4,5-trifluorophenyl)-6,7-dihydro-4H-pyrazolo[1,5-a]pyrazine-5-carboxamide]
EC50: 21 nM

Cc1noc(C2CC(=O)N(c3cnn4c3CN(C(=O)Nc3cc(F)c(F)c(F)c3)[C@@H](C)C4)C2)n1 (stereo partly drawn) [Example 284, (6S)-6-methyl-3-[4-(3-methyl-1,2,4-oxadiazol-5-yl)-2-oxo-pyrrolidin-1-yl]-N-(3,4,5-trifluorophenyl)-6,7-dihydro-4H-pyrazolo[1,5-a]pyrazine-5-carboxamide]
EC50: 10 nM

CC1Cn2ncc(-c3ccc(F)cc3F)c2CN1C(=O)Nc1ccc(F)c(Cl)c1 (stereo not shown) [Example 92, N-(3-chloro-4-fluoro-phenyl)-3-(2,4-difluorophenyl)-6-methyl-6,7-dihydro-4H-pyrazolo[1,5-a]pyrazine-5-carboxamide]
EC50: 13 nM

C[C@H]1Cn2ncc(N3CC(c4cccc(F)n4)OC3=O)c2CN1C(=O)Nc1cc(F)c(F)c(F)c1 (stereo partly drawn) [Example 411, (6S)-3-[5-(6-fluoro-2-pyridyl)-2-oxo-oxazolidin-3-yl]-6-methyl-N-(3,4,5-trifluorophenyl)-6,7-dihydro-4H-pyrazolo[1,5-a]pyrazine-5-carboxamide]
EC50: 18 nM
